Data taken from patent US20260009008A1, “SYNTHETIC GENOME EDITING SYSTEM” (Pencil Biosciences Limited, priority 2021, published 2026).
Entries after “also recorded” stand apart in the source; their conditions may differ. Values belong to the substance of their own block, whether it stands above or below them.

Assays:
[1] = system: PDS2 dsDNA bait (ACGGGT); experiment: ELISA / bio-panning of M13 phage display peptides on biotinylated dsDNA bait PDS2; format: binding; details: peptide displayed in the phage library
From the text: (§1) As noted above, a commercially available M13 phage display library was employed (New England Biolabs, catalogue #E8111L) which contains around 1×10^912mer peptides fused to the N-terminus of the phage minor coat protein III. Two different 6 nt dsDNA baits were employed with a biotin tag immobilized on a streptavidin-coated 96 well plate as specified in Table 1 below:
(§2) ELISA assays were used to assess binding of peptides of the phage display library to the PDS1 and PDS2 dsDNA baits using an anti-M13 phage antibody labelled with horseradish peroxidase (HRP). After three rounds of bio-panning and sequence analysis of the bound peptides in the library, two 12 mer peptide sequences were selected, chemically synthesised, and modified as set out in Table 2 below.
(§3) • 1. Blocking step of the streptavidin coated 96 well plate (Fisher Scientific, UK) with the Blocking Buffer (0.1 M NaHCO3 (pH 8.6), 5 mg/ml BSA, filter sterilised and stored at 4° C.). • 2. 6 rounds of wash with 1× TBST after discarding the blocking solution. • 3. Precomplexing step (this step can be done at the same time as the blocking step, mentioned above), where the amplified phage library was incubated with each of the dsDNA baits in separate reactions. Each bait includes annealed double stranded DNA oligos (dsDNA), containing one of the PDS sites. […]

[2] = Observation of peptide aggregation / precipitation; format: physicochemical
[3] = system: molecular beacon DNA oligonucleotide (SEQ. ID. No. 60); experiment: Molecular beacon assay for DNA binding and cleavage; format: biochemical; details: for emission signal of the fluorophore after a 15-minute incubation: peptide:molecular beacon 500:1, beacon 400 nM, 5 mM MnCl2; for signal / disassembly of the molecular beacon with different metal ions: zinc, manganese, calcium and magnesium chloride
From the text: A molecular beacon assay was firstly used to screen each of the peptides for DNA binding and cleavage. For the purpose of these studies, the following DNA oligonucleotide containing 33 nucleotides was employed
where the first six nucleotides at each terminus complement one another forming a 6 bp double stranded DNA stem.
The hairpin structure formed contains a fluorescein molecule as a 5′ modification (6-FAM) and a fluorescent quencher (BHQ1) as a 3′ modification. In the hairpin conformation the fluorescent signal of the molecular beacon is reduced. If a peptide binds or causes cleavage, the hairpin structure will disassemble releasing the fluorophore from the quencher.
The reaction conditions were chosen to reflect conditions that might be expected to strengthen the probability of DNA cleavage by each peptide. As noted above, the peptide designs were inspired by the catalytic active sites of known nucleases. Often the divalent metal of choice for such sites is Mg^2 +. […] In contrast Mn^2 + ions require less coordination sites to facilitate catalysis.
Each reaction was carried out in a reaction buffer of 25 mM Tris-HCl (pH 7.5), 130 mM NaCl, 27μM KCl and 5 mM MnCl2. The molecular beacon was provided at a concentration of 400 nM.
The emission signal of the fluorophore after a 15-minute incubation was measured for each peptide mixed with the molecular beacon at a 500:1 concentration ratio.

[4] = system: plasmid DNA (pBR322); experiment: Gel plasmid cleavage assay; format: biochemical; details: for percentage of nicked plasmid with increasing peptide concentration: after 12 hours
From the text: For this reason a further gel plasmid cleavage assay was employed to look for cleavage. Such a gel cleavage assay can differentiate between plasmid that is intact (no cleavage), nicked (ssDNA cleavage) and linearised (dsDNA cleavage) as the three plasmid species will migrate differently on an agarose gel. Intact plasmids have a supercoiled structure and therefore can migrate easily through an agarose gel whereas a ssDNA cleavage on the plasmid will relax this supercoiled structure. This produces a relaxed circle/nicked structure that migrates more slowly through the pores. The dsDNA cleavage of a plasmid produces a linearised plasmid. The linear structure migrates faster than a relaxed circular structure although not as fast as the supercoiled structure.
To optimize the assay, plasmid DNA (pBR322) was mixed with increasing concentrations of the peptide bL or bN, in the presence of Zn^2 + ions. […] The percentage of nicked species increases with greater peptide concentration for both bL and bN. […] An increasing proportion of the plasmid DNA is also observed in the wells of the gel. This DNA can be binding to the peptide causing a complex that is unable to migrate into the gel.

[5] = system: PDS1 dsDNA bait (GAGGTC); experiment: ELISA / bio-panning of M13 phage display peptides on biotinylated dsDNA bait PDS1; format: binding; details: peptide displayed in the phage library
From the text: as §1, §2, §3

[6] = system: nanoluciferase expression cassette with PDS variants in the target region; experiment: Nanoluciferase detection assay for binding ability of the DBD to variant PDSs (ApGet-i); format: cell-based; details: EPI300 cells, ApGet-i induced with ATC, nanoluciferase induced with IPTG
From the text: As noted above the DBD of sequence SLETWLKHREKDGGS (SEQ. ID. No. 4) was selected on the basis of binding affinity for the dsDNA sequence represented by the 5′ to 3′ sequence 5′GAGGTC3′ (the initially chosen predetermined sequence (PDS) for use in targeting). A further study was undertaken to determine the importance of various nucleotides in this PDS for binding to the same DBD using a nanoluciferase detection assay (Promega). This was on the basis of the prior observation as noted above that expression of ApGet-i in bacteria can suppress transcription of sequences containing target sites for the NAC plus the PDS used for DBD selection.
A nanoluciferase expression cassette was cloned in a second plasmid vector (the Detector plasmid) with the PDS as originally used for DBD selection and variants of that PDS in the target region as shown in FIG. 22.
Bacterial cells were transformed with the Editor plasmid in which ApGet-i expression was under the control of a TetR promoter. The NAC was also expressed by the same plasmid under the control of a constitutive J23119 promoter. The Detector and Editor plasmids were provided with different resistance genes and compatible origins of replication. […] The signal of the nanoluciferase was monitored on the microplate reader and normalized to take account of the degree of bacterial growth in the culture. […]

[7] = system: extended dsDNA containing the cognate PDS (PDS1); experiment: T7E1 cleavage assay for peptide binding and unwinding of dsDNA target; format: biochemical; details: chemically synthesized peptides, PDS1 as cognate PDS
From the text: FIG. 4: Cleavage assay results using T7E1 enzyme for binding of the chemically synthesized peptides 1, 2, 3 and 4 (Table 2 in Example 1) to the two 6 nt sequences as above designated PDS1 and PDS2 in a dsDNA target and unwinding of the dsDNA target.
It was reasoned that the phage clones with the selected DNA binding peptides will alter a DNA duplex in a region presenting the cognate PDS, which may result in recognition by DNA nucleases, such as T7E1, commonly used to detect insertions or deletions (indels), which result from the activity of genome editing enzymes, such as Cas9, Cas12a etc. Results of such cleavage assays for destabilized DNA duplex using the extended dsDNA baits as set out in Table 3 below and T7E1 and Surveyor enzymes support this hypothesis (see FIGS. 3a-c), i.e. that binding of the clones presenting the selected fused peptides to dsDNA destabilizes the structure of the DNA duplex in a manner facilitating accessibility for RNA hybridization.
The modified peptides as set out in Table 2 were used to test the sequences for use as DNA-binding domains without M13 phage connection. The modifications included amidation and acetylation at the […] to reflect natural peptide modifications to improve peptide stability and prevent degradation. In the case of Peptides 1 and 3, an additional C-terminal linker (GGS) was provided as noted above. […]

[8] = system: PDS1 in an extended dsDNA target; experiment: FRET experiment for binding/unwinding of dsDNA and RNA hybridization; format: biochemical; details: FAM-tagged targeting RNA, target DNA tagged with Cy5 or Texas Red
Experimental: FIG. 5: Schematic diagram illustrating a FRET experiment to assess specific binding and unwinding of a dsDNA target by peptide binding to a PDS with RNA hybridization. Results are also shown for binding of Peptide 1 (SEQ. ID. No. 37 as shown in Table 2) to PDS1 having the 5′ to 3′ sequence GAGGTC. The FRET signal was determined upon incubation of the PDS1 containing dsDNA targets with 5′ FAM-RNA with (2, 4) or without peptide (1, 3).
A FRET experiment was carried out to assess the binding and unwinding activity of Peptide 1 with ability to facilitate RNA hybridization when presented with PDS1 in an extended dsDNA target as shown schematically in FIG. 5. It was hypothesized that, upon binding, Peptide 1 will cause some transient unwinding of the dsDNA which will facilitate binding of a targeting RNA. The fluorescent donor, 6-carboxyfluorescein (FAM), was used to tag an appropriate targeting RNA with a 15 bp complementary sequence. Target DNA was tagged with the fluorescent acceptor Cy5 at a 3′ end or Texas Red at a 5′-end.

signal with increasing peptide concentration, Zn2+ ions ([3]; Zn2+ ions, peptide 0-800 μM): still increase up to 800μM | signal without any metal ions ([3]; no metal): high signal | signal for the disassembly of the molecular beacon with increasing peptide concentration ([3]; peptide 0-800 μM, Mn2+ or Zn2+): general increase | emission signal of the fluorophore after a 15-minute incubation [3]: relatively high emission signal
Substance: IHIDISI [bN]
signal with Mn2+ ions compared with Mg2+ ions ([3]; peptide concentration 400 μM, beacon 400 nM): greater than the bN peptide with Mg^2 + ions | signal / disassembly of the molecular beacon with different metal ions [3]: high increase in the signal regardless of the metal; also recorded: greater with Mn^2 + ions | cleavage of plasmid [4]: some cleavage | percentage of nicked plasmid with increasing peptide concentration ([4]; Zn2+ ions): increase in the percentage of nicked plasmid

emission signal of the fluorophore after a 15-minute incubation [3]: relatively high emission signal
Substance: LDLDLKLHL [bL]
signal / disassembly of the molecular beacon with different metal ions [3]: more extensive in the presence of zinc chloride ions | cleavage of plasmid [4]: some cleavage | amount of nicked plasmid at higher peptide concentrations (greater than 600 μM) ([4]; Zn2+ ions, 12 hours): continues to increase | percentage of nicked plasmid with increasing peptide concentration ([4]; Zn2+ ions): increase in the percentage of nicked plasmid

The remaining lines, values behind:

Substance: AGDWESWTNGSW [Peptide 4]
binding to the PDS2 dsDNA bait [1]: binding to the PDS2 dsDNA bait

Substance: IEIDIHI [ibD]
aggregation / precipitation of peptide [2]: no observable aggregates even at the highest tested concentration

Substance: SLETWLKHREKD [Peptide 2]
binding ability for the PDS1 dsDNA bait [5]: high binding ability

Substance: SLETWLKHREKDGGS (DBD) [DBD of SEQ. ID. No. 4]
inhibition of luciferase expression with different PDSs ([6]; listed as DBD): effective in inhibiting expression of the luciferase | inhibition of luciferase expression with different PDSs ([6]; listed as DBD of SEQ. ID no. 4): shown to be effective

Substance: SLETWLKHREKDGGS [Peptide 1]
binding and non-duplex structure formation (T7E1 cleavage) [7]: best candidate to be a DNA-binding domain | RNA-DNA hybridisation reflected by FRET signal [8]: shown to be facilitated; also recorded: increase of FRET signal
